What was measured:
[1] = tested on: zebrafish embryos; assay: Zebrafish embryo development assay; assay type: in vivo, Zebrafish (Danio rerio)
Experimental: Animals. Zebrafish (Danio rerio) were raised, maintained and crossed as described before (Westerfield, M. University of Oregon Press, Eugene. Or., 1993). Development of embryos was studied at 28° C. and staging was determined by morphological characteristics (Kimmel, C. B., et al., Dev. Dyn. 203, 253-310 (1995)).
A translation blocking anti-ezrin morpholino oligonucleotide (MO), described and validated by Link et al. (Link, V., et al., J. Cell Sci., 119, 2073-2083 (2006)), MO1, 5′-[…] (SEQ ID NO:1), was synthesized by Gene-Tools, LCC (Philomath, Oreg.). MOs were microinjected into one to four cell stage embryos.
Zebrafish embryos were arrayed, three per well, in 96-well plates. Compounds were added at 1-33 μM concentrations. Embryos were observed, and photographed, at 70% epiboly, 24-28 hours post fertilization (hpf) and 48 hpf.

[2] = tested on: low ezrin expressed K12 cells; assay: Electric cell migration system, K12 cells; assay type: cell-based; settings: non-toxic concentration
Experimental: (§1) Anti-migration potential of the embodied compounds were validated using an electric cell migration system. High ezrin expressed K7M2 cells and low ezrin expressed K12 cells were treated with non-toxic concentrations of a compound and their corresponding anti-migration activity was measured. Data is represented as the ratio of compound K7M2 anti-migration activity divided by the K12 anti-migration activity. The X-axis details the non-toxic concentration of the compound used in the study.

[3] = tested on: high ezrin expressed K7M2 cells; assay: Electric cell migration system, K7M2 cells; assay type: cell-based; settings: non-toxic concentration; compared to NSC 668394
Experimental: as §1

Compound | embryos with epiboly defects at 90% epiboly stage ([1]; 3 ng injected) | embryos with epiboly defects at 90% epiboly stage ([1]; 6 ng injected) | embryos with epiboly defects at 90% epiboly stage ([1]; 12 ng injected) | effect on K12 cell line migration [2] | anti-migratory activity on K7M2 cells [3]
5′-CGCGAACATTTACTGGTTTAGG (SEQ ID NO:1) (all phosphorodiamidate morpholino (PMO)) [MO1] | 42% | 69% | 69% |  | 
COc1ccc(CCNC2=CC(=O)c3cccnc3C2=O)cc1Cl [GK2-057] |  |  |  | benign | greater anti-migratory activity

Source: US9522908B2, “Ezrin inhibitors and methods of making and using” (Georgetown University, priority 2010, dated 2016)
